Test system: Human neonatal epidermal keratinocytes (HEK)
Assay: Evaluation of calcium influx in human neonatal epidermal keratinocytes (fluo 3-AM, confocal microscope)
Format: cell-based
Conditions: theanine 2.5 mM, theanine derivative 0.5 mM, 5 minutes, then fluo 3-AM 15 minutes, FIG. 4
Protocol: Stabilized human neonatal epidermal keratinocytes (HEK, Lonza, NHEK-Neo-Neonatal Normal Human Epidermal Keratinocytes, Pooled) are dispensed in a confocal dish at a density of 2×10^4 cells per well and treated with theanine (2.5 mM) and the theanine derivative (0.5 mM) for 5 minutes and then with […] fluo 3-AM for 15 minutes. The fluo 3 decomposed in the cells and combined with calcium is observed with a confocal microscope (Nikon, Japan) to measure the difference of fluorescence and evaluate the migration of calcium in the cells.

Q: With `CCNC(=O)CC[C@H](N)C(=O)O` [theanine] as the molecule, how does the “migration of calcium in the cells” value read?
A: definitely different behaviors from each other

— patent US9192791B2, “Topical composition containing theanine derivatives for use on skin” (AMOREPACIFIC CORPORATION, priority 2011, dated 2015)
